From US7595401B2, “Therapeutic compounds and their use in cancer” (Myriad Pharmaceuticals, Inc., priority 2006, dated 2009) come the findings set out here.

Each structure is given as a SMILES string.

For one test, the system named is purified human Hsp90. The experiment in a line: Binding Assay: fluorescence polarization with BODIPY-labeled geldanamycin. The conditions noted are these: 5 μM compound, BODIPY-GM 10 nM, Hsp90 30 nM. In outline: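 Compounds in 2% DMSO final compete with 10 nM BODIPY-GM for 30 nM purified human Hsp90, incubated overnight at room temperature in pH 7.3 HEPES buffer containing Na2MoO4 and DTT. Polarization (mP, ex/em 485/530) normalized to DMSO gives percent inhibition; autofluorescence-confounded data excluded.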
(Fluorescence polarisation rises when a labelled molecule tumbles more slowly, as on binding a larger partner.)
In the case of `CC(=O)N1CCC(CCn2cnc(N)c3nc(Sc4nc5ccc([N+](=O)[O-])cc5s4)nc2-3)CC1` [Example 652, 3-[2-(1-Acetylpiperidin-4-yl)ethyl]-8-[(6-nitro-1,3-benzothiazol-2-yl)thio]-3H-purin-6-amine], the “% Inhibition at 5 μM Compound Concentration” value (shortened to “% Inhibition”) is on record as 0.00%.

For `CC(C)(C)OC(=O)NC(CCn1cnc(N)c2nc(Sc3cc4c(cc3Br)OCO4)nc1-2)C1CC1` (centres unmarked) [Example 663, tert-butyl (3-{6-amino-8-[(6-bromo-1,3-benzodioxol-5-yl)thio]-3H-purin-3-yl}-1-cyclopropylpropyl)carbamate], the “% Inhibition” value was determined as 15%.

As to `COc1ccc(OC)c(Sc2nc3c(N)ncn(CCC(NC(=O)OC(C)(C)C)C4CC4)c-3n2)c1` (centres unmarked) [Example 665, tert-Butyl(3-{6-amino-8-[(2,5-dimethoxyphenyl)thio]-3H-purin-3-yl}-1-cyclopropylpropyl)carbamate], the “% Inhibition” value is recorded as 0%.

For the compound `COc1ccc(OC)c(Sc2nc3c(N)ncn(CCC(NC(=O)OC(C)(C)C)C4CCSCC4)c-3n2)c1` (centres unmarked) [Example 669, tert-Butyl[3-{6-amino-8-[(2,5-dimethoxyphenyl)thio]-3H-purin-3-yl}-1-(tetrahydro-2H-thiopyran-4-yl)propyl]carbamate], the “% Inhibition” value stood at 10%.

Regarding `CC(C)(C)OC(=O)NC(CCn1cnc(N)c2nc(Sc3cc4c(cc3Br)OCO4)nc1-2)C1CCC1` (centres unmarked) [Example 673, tert-Butyl(3-{6-amino-8-[(6-bromo-1,3-benzodioxol-5-yl)thio]-3H-purin-3-yl}-1-cyclobutylpropyl)carbamate], the “% Inhibition” value is reported as 0%.

For the compound `CS(=O)(=O)NC(CCn1cnc(N)c2nc(Sc3cc4c(cc3Br)OCO4)nc1-2)C1CC1` (centres unmarked) [Example 675, N-(3-{6-Amino-8-[(6-bromo-1,3-benzodioxol-5-yl)thio]-3H-purin-3-yl}-1-cyclopropylpropyl)methanesulfonamide], the “% Inhibition” value is reported as 49%.

For the compound `CC(C)(C)OC(=O)NC(CCn1cnc(N)c2nc(Sc3cc4c(cc3Br)OCO4)nc1-2)C1CCCC1` (centres unmarked) [Example 680, {3-[6-Amino-8-(6-bromo-benzo[1,3]dioxol-5-ylsulfanyl)-purin-3-yl]-1-cyclopentyl-propyl}-carbamic acid tert-butyl ester], the “% Inhibition” value was 14%.

Regarding `CC(C)(C)OC(=O)NC(CCn1cnc(N)c2nc(Sc3cc4c(cc3Br)OCO4)nc1-2)C1CCOCC1` (centres unmarked) [Example 683, [3-[6-Amino-8-(6-bromo-benzo[1,3]dioxol-5-ylsulfanyl)-9H-purin-3-yl]-1-(tetrahydro-pyran-4-yl)-propyl]-carbamic acid tert-butyl ester], the “% Inhibition” value amounted to 5%.

Still in this test, the particulars now being: BODIPY-GM 10 nM, Hsp90 30 nM.
As for `Nc1ncnc2c1nc(Sc1cc3c(cc1Br)OCO3)n2CCCC1CCCCN1` (centres unmarked) [Example 646, 8-[(6-bromo-1,3-benzodioxol-5-yl)thio]-9-(3-piperidin-2-ylpropyl)-9H-purin-6-amine], the IC50 came out at 60 nM.

Consider `Nc1ncnc2c1nc(Sc1cc3c(cc1Br)OCO3)n2CC1CCNCC1` [Example 648, 8-[(6-bromo-1,3-benzodioxol-5-yl)thio]-9-(piperidin-4-ylmethyl)-9H-purin-6-amine], for which the half-maximal inhibitory concentration (IC50) was 684 nM.

In turn, `Nc1ncnc2c1nc(Sc1cc3c(cc1Br)OCO3)n2CCC1CCCCN1CC(=O)O` (centres unmarked) [Example 650, [2-(2-{6-amino-8-[(6-bromo-1,3-benzodioxol-5-yl)thio]-9H-purin-9-yl}ethyl)piperidin-1-yl]acetic acid] had an IC50 of over 2000 nM.

`CC(=O)N1CCC(CCn2c(Sc3nc4ccc([N+](=O)[O-])cc4s3)nc3c(N)ncnc32)CC1` [Example 651, 9-[2-(1-Acetylpiperidin-4-yl)ethyl]-8-[(6-nitro-1,3-benzothiazol-2-yl)thio]-9H-purin-6-amine]: the concentration for half-maximal inhibition (IC50) is over 5000 nM.

For `CC(=O)N1CCC(CCn2c(Sc3nc4c(Cl)cccc4s3)nc3c(N)ncnc32)CC1` [Example 653, 9-[2-(1-Acetylpiperidin-4-yl)ethyl]-8-[(4-chloro-1,3-benzothiazol-2-yl)thio]-9H-purin-6-amine], the half-maximal inhibitory concentration (IC50) is over 2000 nM.

In turn, `CC(=O)N1CCC(CCn2c(Sc3nc(C)c(C)s3)nc3c(N)ncnc32)CC1` [Example 654, 9-[2-(1-Acetylpiperidin-4-yl)ethyl]-8-[(4,5-dimethyl-1,3-thiazol-2-yl)thio]-9H-purin-6-amine] yielded an IC50 of 2000 nM.

Turning to `CC(=O)N1CCC(CCn2c(Sc3nc4ccc(F)cc4s3)nc3c(N)ncnc32)CC1` [Example 655, 9-[2-(1-Acetylpiperidin-4-yl)ethyl]-8-[(6-fluoro-1,3-benzothiazol-2-yl)thio]-9H-purin-6-amine], the IC50 is over 5000 nM.

As for `CC(=O)N1CCC(CCn2c(Sc3nc4cc(Cl)ccc4s3)nc3c(N)ncnc32)CC1` [Example 656, 9-[2-(1-Acetylpiperidin-4-yl)ethyl]-8-[(5-chloro-1,3-benzothiazol-2-yl)thio]-9H-purin-6-amine], the half-inhibitory concentration (IC50) was over 5000 nM.

Compound `CC(=O)N1CCC(CCn2c(Sc3nc4cccc(Cl)c4s3)nc3c(N)ncnc32)CC1` [Example 657, 9-[2-(1-Acetylpiperidin-4-yl)ethyl]-8-[(7-chloro-1,3-benzothiazol-2-yl)thio]-9H-purin-6-amine] gave an IC50 of 190 nM.

`COc1ccc2sc(Sc3nc4c(N)ncnc4n3CCC3CCN(C(C)=O)CC3)nc2c1` [Example 658, 9-[2-(1-Acetylpiperidin-4-yl)ethyl]-8-[(5-methoxy-1,3-benzothiazol-2-yl)thio]-9H-purin-6-amine] returned an IC50 of over 5000 nM.

`CC(=O)N1CCC(CCn2c(Sc3nc4ccccc4s3)nc3c(N)ncnc32)CC1` [Example 659, 9-[2-(1-Acetylpiperidin-4-yl)ethyl]-8-(1,3-benzothiazol-2-ylthio)-9H-purin-6-amine] yielded a half-maximal inhibitory concentration (IC50) of 4000 nM.

Compound `CC(=O)N1CCC(CCn2c(Sc3nc(C)c(CC(N)=O)s3)nc3c(N)ncnc32)CC1` [Example 660, 2-[2-({9-[2-(1-Acetylpiperidin-4-yl)ethyl]-6-amino-9H-purin-8-yl}thio)-4-methyl-1,3-thiazol-5-yl]acetamide] came in with an IC50 of over 5000 nM.

Compound `Nc1ncnc2c1nc(Sc1nc3cccc(Cl)c3s1)n2CCC1CCN(C=O)CC1` [Example 661, 4-(2-{6-Amino-8-[(7-chloro-1,3-benzothiazol-2-yl)thio]-9H-purin-9yl}-ethyl)-piperidin-1-carbaldehyde] yielded a half-maximal inhibitory concentration (IC50) of 60 nM.

The compound `CC(C)(C)OC(=O)NC(CCn1c(Sc2cc3c(cc2Br)OCO3)nc2c(N)ncnc21)C1CC1` (centres unmarked) [Example 662, tert-Butyl (3-{6-amino-8-[(6-bromo-1,3-benzodioxol-5-yl)thio]-9H-purin-9-yl}-1-cyclopropylpropyl)carbamate] registered an IC50 of 300 nM.

As to `CC(C)(C)OC(=O)NC(CCn1c(Sc2cc3c(cc2Br)OCO3)nc2c(N)ncnc21)C1CCSCC1` (centres unmarked) [Example 666, tert-Butyl[3-{6-amino-8-[(6-bromo-1,3-benzodioxol-5-yl)thio]-9H-purin-9-yl}-1-(tetrahydro-2H-thiopyran-4-yl)propyl]carbamate], the half-maximal inhibitory concentration (IC50) was found to be 800 nM.

Compound `COc1ccc(OC)c(Sc2nc3c(N)ncnc3n2CCC(NC(=O)OC(C)(C)C)C2CCSCC2)c1` (centres unmarked) [Example 668, tert-Butyl[3-{6-amino-8-[(2,5-dimethoxyphenyl)thio]-9H-purin-9-yl}-1-(tetrahydro-2H-thiopyran-4-yl)propyl]carbamate] had a 50% inhibitory concentration (IC50) of 4800 nM.

Take `CC(C)(C)OC(=O)NC(CCn1c(Sc2cc3c(cc2Br)OCO3)nc2c(N)ncnc21)C1CCCCC1` (centres unmarked) [Example 670, tert-Butyl(3-{6-amino-8-[(6-bromo-1,3-benzodioxol-5-yl)thio]-9H-purin-9-yl}-1-cyclohexylpropyl)carbamate]: the IC50 was 1600 nM.

As to `CC(C)(C)OC(=O)NC(CCn1cnc(N)c2nc(Sc3cc4c(cc3Br)OCO4)nc1-2)C1CCCCC1` (centres unmarked) [Example 671, tert-Butyl(3-{6-amino-8-[(6-bromo-1,3-benzodioxol-5-yl)thio]-3H-purin-3-yl}-1-cyclohexylpropyl)carbamate], the IC50 came to 1000 nM.

As for `CC(C)(C)OC(=O)NC(CCn1c(Sc2cc3c(cc2Br)OCO3)nc2c(N)ncnc21)C1CCC1` (centres unmarked) [Example 672, tert-Butyl(3-{6-amino-8-[(6-bromo-1,3-benzodioxol-5-yl)thio]-9H-purin-9-yl}-1-cyclobutylpropyl)carbamate], the half-inhibitory concentration (IC50) came to 900 nM.

In turn, `CS(=O)(=O)NC(CCn1c(Sc2cc3c(cc2Br)OCO3)nc2c(N)ncnc21)C1CC1` (centres unmarked) [Example 674, N-(3-{6-Amino-8-[(6-bromo-1,3-benzodioxol-5-yl)thio]-9H-purin-9-yl}-1-cyclopropylpropyl)methanesulfonamide] came in with an IC50 of 80 nM.

As for `COc1ccc(OC)c(Sc2nc3c(N)ncnc3n2CCC(NS(C)(=O)=O)C2CC2)c1` (centres unmarked) [Example 676, N-(3-{6-Amino-8-[(2,5-dimethoxyphenyl)thio]-9H-purin-9-yl}-1-cyclopropylpropyl)methanesulfonamide], the 50% inhibitory concentration (IC50) was determined as 950 nM.

Consider `CC(C)(C)OC(=O)NC(CCn1c(Sc2cc3c(cc2Br)OCO3)nc2c(N)ncnc21)C1CCCC1` (centres unmarked) [Example 681, {3-[6-Amino-8-(6-bromo-benzo[1,3]dioxol-5-ylsulfanyl)-purin-9-yl]-1-cyclopentyl-propyl}-carbamic acid tert-butyl ester], for which the IC50 turned out to be 1000 nM.

Take `CC(C)(C)OC(=O)NC(CCn1c(Sc2cc3c(cc2Br)OCO3)nc2c(N)ncnc21)C1CCOCC1` (centres unmarked) [Example 682, [3-[6-Amino-8-(6-bromo-benzo[1,3]dioxol-5-ylsulfanyl)-purin-9-yl]-1-(tetrahydro-pyran-4-yl)-propyl]-carbamic acid tert-butyl ester]: the half-maximal inhibitory concentration (IC50) was found to be 190 nM.

Consider `Nc1ncnc2c1nc(Sc1cc3c(cc1Br)OCO3)n2CCC(N)C1CC1` (centres unmarked) [Example 687, 9-(3-Amino-3-cyclopropylpropyl)-8-[(6-bromo-1,3-benzodioxol-5-yl)thio]-9H-purin-6-amine], for which the IC50 is 80 nM.

As usually defined, the % Inhibition is the percentage by which the read-out fell short of the control. Low values mean a response near the control, high ones a response far below the control. As usually defined, the IC50 is the concentration that gives 50% inhibition. Low readings indicate higher potency, high ones lower potency.
